Assay [1] has as its system S. cerevisiae apl2Δ mutant growth inhibition. Briefly: growth inhibition of apl2Δ yeast, dose response, selectivity assay for post-Golgi transport modulator project, S. cerevisiae, secondary screen, background strain comparison (AID 789).
Experiment in assay [2]: as above
Particulars: for IC50: S. cerevisiae background (wild-type parent) strain growth inhibition; for growth inhibition: S. cerevisiae apl2Δ mutant growth inhibition, at 25 µM (top of the series).

Activity calls are given as the source filed them. How the calls were made is not given here.

Turning to `O=C1CC(N2CCN(c3ccc(Cl)c(Cl)c3)CC2)C(=O)N1` (stereo not drawn), the IC50 (as a rule, the midpoint of a concentration-inhibition curve) in assay [1] is > 10 µM (inactive); in assay [2] it was > 10 µM.

For `Cc1cc(C)nc(N/N=C/C(Cl)=C/c2ccccc2)n1`, the figures for the IC50 in assay [1] and in assay [2] were > 10 µM (inactive) and > 10 µM, respectively.

For the compound `Cc1cccc(-c2nnc(-c3cccc(NC(=O)Cc4cccs4)c3)o2)c1`, in assay [2], the IC50 was found to be 15.2 µM.

With `OC(c1ccc(Cl)cc1Cl)C(Cc1cccnc1)n1cncn1` (stereo not drawn), the IC50 in assay [1] is > 10 µM (inactive); in assay [2], > 10 µM.

Take `CN1C(=O)/C(=C/c2cccn2-c2ccc3ccccc3c2)C(=O)NC1=S`: the results for the IC50 in assay [1] and in assay [2] were 11.3 µM (inactive) and 6.58 µM, respectively.

For the compound `CN1CCN(CCCNC(=O)Cn2nc(-c3ccccc3)ccc2=O)CC1`, the IC50 in assay [1] is > 10 µM (inactive); in assay [2] it was > 10 µM.

For the compound `O=C(NCc1ccc2c(c1)OCO2)c1ccc(CS(=O)(=O)c2cccc(C(F)(F)F)c2)o1`, the IC50 in assay [1] was > 10 µM (inactive); in assay [2], > 10 µM.

For `CCOC(=O)Cn1cc(C=O)c2ccccc21`, the IC50 in assay [1] is > 10 µM (inactive); in assay [2], > 10 µM.

On to `Cc1ccc(CN2CCN(/N=C/c3cc(Br)ccc3O)CC2)cc1`, for which the figures for the IC50 in assay [1] and in assay [2] were > 10 µM (inactive) and > 10 µM, respectively.

In the case of `Cc1ccc(S(=O)(=O)N(CC(=O)N2CCC(C(N)=O)CC2)c2cccc(C(F)(F)F)c2)cc1`, the IC50 is > 10 µM (inactive) in assay [1] and > 10 µM in assay [2].

With `O=S1(=O)C=C(Sc2nnc(-c3ccccc3)o2)c2ccccc21`, in assay [1], the IC50 is > 10 µM (inactive).

Turning to `O=c1c2cccc3c2c(nn1CN1CCOCC1)-c1ccccc1-3`, the IC50 in assay [1] was > 10 µM (inactive); in assay [2] it was > 10 µM.

Regarding `CCOc1ccc(-c2[nH]ncc2Oc2ccccc2OCC)c(O)c1`, the IC50 in assay [1] is 13.4 µM; in assay [2] it was 16 µM.

`COc1ccc(Nc2nc(N)nc(CSc3nnc(N)s3)n2)cc1`: the IC50 in assay [1] is > 10 µM (inactive); in assay [2] it was > 10 µM.

Turning to `Clc1cc(Br)ccc1OCCOCCN1CCOCC1`, the figures for the IC50 in assay [1] and in assay [2] were > 10 µM (inactive) and > 10 µM, respectively.

For the compound `Cc1ccc(-c2csc3nnc(SCC(=O)Nc4cccc(C)n4)n23)cc1`, the IC50 is > 10 µM (inactive) in assay [1] and > 10 µM in assay [2].

Regarding `CCOC(=O)C(C)Oc1ccc2c(C)cc(=O)oc2c1C(C)=O` (stereo not drawn), the values for the IC50 in assay [1] and in assay [2] were > 10 µM (inactive) and > 10 µM, respectively.

`O=S(=O)(NCC(c1cccnc1)N1CCN(c2ccccc2)CC1)c1cccs1` (stereo not drawn): the IC50 in assay [1] is > 10 µM (inactive); in assay [2] it was > 10 µM.

For `O=C1c2cccc3c([N+](=O)[O-])ccc(c23)C(=O)N1c1ccc(Cl)cn1`, the IC50 in assay [1] is 14.5 µM (inactive); in assay [2], 6.08 µM.

Take `CC1CCC(C(C)C)C(OCC(O)CN2CCN(Cc3ccccc3)CC2)C1` (stereo not drawn): the half-maximal inhibitory concentration (IC50) in assay [1] was 19.3 µM.

`O=C(Nc1nnc(-c2ccc3c(c2)CCCC3)o1)c1ccccc1`: the IC50 in assay [1] was > 10 µM (inactive).

Turning to `O=C(OCn1ncc(Cl)c(Cl)c1=O)c1ccc(C(F)(F)F)cc1`, the IC50 in assay [1] was > 10 µM (inactive); in assay [2], > 10 µM.

As for `CC1CCCCN1CCNC(=O)Cn1nc(-c2ccccc2)ccc1=O` (stereo not drawn), the IC50 in assay [1] was > 10 µM (inactive); in assay [2] it was > 10 µM.

For the compound `N[C@@H](Cc1c[nH]c2ccccc12)c1nnc(SCc2ccc(Cl)cc2)o1`, the IC50 in assay [2] came to 20.4 µM.

In the case of `CCOC(=O)NC(Nc1ccc(S(N)(=O)=O)cc1)(C(=O)OCC)C(F)(F)F` (stereo not drawn), the IC50 was > 10 µM (inactive) in assay [1] and > 10 µM in assay [2].

Consider `O=C(Nc1nnc(-c2ccc3c(c2)CCCC3)o1)c1ccccc1Cl`, for which the IC50 was > 10 µM (inactive) in assay [1] and 10.7 µM in assay [2].

With `c1ccc(Nc2cc(-c3ccccc3)nc3ncnn23)cc1`, the IC50 is > 10 µM (inactive) in assay [1] and > 10 µM in assay [2].

Consider `CCN(CC)c1nc2cc(OC)ccc2cc1C#N`, for which the IC50 was > 10 µM (inactive) in assay [1] and > 10 µM in assay [2].

As for `O=C(O)c1ccc(N2CCCCC2)cc1`, the IC50 in assay [1] is > 10 µM (inactive); in assay [2], > 10 µM.

In the case of `Cc1ccc(C(=O)NCc2occc2C(=O)O)o1`, the IC50 in assay [1] was > 10 µM (inactive); in assay [2], > 10 µM.

`O=C(Cc1cccs1)Nc1nc2c(s1)CCCC2`: the IC50 in assay [1] was > 10 µM (inactive); in assay [2] it was > 10 µM.

Turning to `O=C(COc1ccc(Cl)cc1Cl)N1CCN(C/C=C/c2ccccc2)CC1`, the half-inhibitory concentration (IC50) was 4.89 µM in assay [1] and 7.14 µM in assay [2].

As for `Cn1c(=O)cc(NCc2ccccc2)[nH]c1=O`, the IC50 is > 10 µM (inactive) in assay [1] and > 10 µM in assay [2].

In the case of `O=C(CN1CCN(c2ccccn2)CC1)Nc1ccc(Oc2ccccc2)cc1`, the IC50 in assay [1] is > 10 µM (inactive).

`Cc1cc(OCC(F)(F)C(F)(F)C(F)(F)C(F)(F)C(F)(F)C(F)F)nc(N)n1`: the IC50 in assay [1] is > 10 µM (inactive); in assay [2] it was > 10 µM.

As for `CCN(CC)CCn1nc(C)nc1-c1ccccc1O`, the IC50 in assay [1] was > 10 µM (inactive); in assay [2] it was > 10 µM.

With `O=C(NCc1ccco1)C(c1cccs1)N(C(=O)Cc1cccs1)c1ccccc1` (stereo not drawn), the IC50 in assay [1] was > 10 µM (inactive); in assay [2] it was > 10 µM.

With `CCC(C)(C)n1nnnc1C(c1cc2cc3c(cc2[nH]c1=O)OCO3)N1CCN(C)CC1` (stereo not drawn), the IC50 in assay [1] is > 10 µM (inactive); in assay [2], > 10 µM.

With `Clc1ccc(-c2n[nH]c3c2CCC3)c(Cl)c1`, the IC50 in assay [1] is 1.12 µM (inactive); in assay [2], 0.518 µM.

`CSc1ncccc1C(=O)OCC(=O)N1CCOCC1`: the IC50 is > 10 µM (inactive) in assay [1] and > 10 µM in assay [2].

For the compound `CC1CN(CCCCOc2ccc(C(C)C)cc2)CC(C)O1` (stereo not drawn), the half-inhibitory concentration (IC50) in assay [2] was > 10 µM.

Consider `Cc1ccc(-n2cc3c(-c4cccc(Br)c4)nnc(C)c3n2)cc1`, for which the IC50 in assay [1] was 15.4 µM (inactive); in assay [2] it was 13.5 µM.

For the compound `N=c1c2c(-c3ccccc3)c(-c3ccccc3)n(Cc3ccco3)c2ncn1Cc1ccccc1`, in assay [1], the IC50 is 20.9 µM.

For the compound `N#Cc1ccccc1Cn1cc(C(=O)c2cccs2)c2ccccc21`, the IC50 in assay [1] is > 10 µM (inactive).

In the case of `O=C(Nc1nnc(C2CC2)o1)c1ccc(S(=O)(=O)N2CCCc3ccccc32)cc1`, in assay [2], the growth inhibition is 30.1% (inactive) and the IC50 was found to be 3.17 µM.

In the case of `O=C(C1CCCN(S(=O)(=O)c2ccc(Cl)cc2)C1)N(Cc1cccs1)C1CC1` (stereo not drawn), the IC50 in assay [1] was > 10 µM (inactive).

As for `CCOC(=O)c1ccc(NC(=O)c2cn(-c3ccccc3)nc2-c2ccncc2)cc1`, in assay [2], the growth inhibition is 18.6% (inactive) and the half-maximal inhibitory concentration (IC50) turned out to be 11.5 µM.

For `CCCCC(=O)Nc1nc(C)c(-c2csc(Nc3ccc(Cl)cc3)n2)s1`, the 50% inhibitory concentration (IC50) in assay [2] was determined as 6.26 µM.

For `CC(c1nnc(SCn2nnc3ccccc3c2=O)n1-c1ccc(Cl)cc1)N(C)C` (stereo not drawn), the IC50 in assay [1] was > 10 µM (inactive).

Consider `O=S(=O)(Cc1ccccc1Cl)N1CCN(Cc2ccc3c(c2)OCO3)CC1`, for which the IC50 in assay [1] is > 10 µM (inactive).

On to `O=C(OCn1ncc(Br)c(Br)c1=O)c1c(F)cccc1F`, for which, in assay [1], the IC50 was > 10 µM (inactive).

In the case of `O=C1C=C(c2ccccc2)C(=O)N1Nc1ccccc1`, the IC50 in assay [1] is > 10 µM (inactive).

For `O=C(Nc1nnc(-c2ccccc2)o1)c1ccc(Cl)cc1`, in assay [2], the growth inhibition is 40.8% (inactive) and the half-maximal inhibitory concentration (IC50) was determined as 0.65 µM.

As to `Cc1ccc(OCC(O)CN2CCN(Cc3ccc4c(c3)OCO4)CC2)c(C)c1` (stereo not drawn), the IC50 in assay [2] is > 10 µM.

For `O=C(OCn1ncc(Cl)c(Cl)c1=O)c1cccc(C(F)(F)F)c1`, in assay [2], the IC50 was 3.51 µM.

As to `O=C(OCn1ncc(Br)c(Br)c1=O)c1ccccc1Cl`, the IC50 in assay [1] is > 10 µM (inactive).

As to `CC12CCC(c3c(C(=O)Nc4nccs4)nn(-c4ccccc4)c31)C2(C)C` (stereo not drawn), the IC50 in assay [1] is > 10 µM (inactive).

On to `O=C(CC(=O)c1cc(Cl)ccc1O)c1ccccc1`, for which the IC50 in assay [2] worked out at 12.7 µM.

Take `CC(=O)c1ccc(N2CCN(C(=O)c3ccc(Br)cc3)CC2)c(F)c1`: in assay [2], the IC50 was 6.58 µM.

With `O=[N+]([O-])c1cc(Cl)cc(/C=N\Nc2ccccn2)c1O`, the IC50 in assay [1] was > 10 µM (inactive).

With `O=C(N/N=C/c1ccc([N+](=O)[O-])o1)c1cc(-c2cccc(Br)c2)nc2ccccc12`, in assay [2], the growth inhibition is 42.1% (inactive) and the IC50 was 4.65 µM.

For `CCOc1ccc(NC(=O)N(C2CCCCC2)C(C)c2cccnc2)cc1` (stereo not drawn), the half-inhibitory concentration (IC50) in assay [1] was 21.5 µM.

Turning to `C=CCc1ccc(OCCCCN2CC(C)OC(C)C2)c(OC)c1` (stereo not drawn), in assay [2], the growth inhibition is 34.1% (inactive) and the IC50 was > 10 µM.

As for `CCCCCOc1ccc(CN2CCOCC2)cc1Cl`, in assay [2], the IC50 is > 10 µM.

With `O=C(NCC(c1cccnc1)N1CCN(c2ccc(F)cc2)CC1)OCc1ccccc1` (stereo not drawn), in assay [1], the IC50 is 23.4 µM.

For the compound `CCCCC(c1nnnn1Cc1ccco1)N1CCN(c2nc3ccccc3s2)CC1` (stereo not drawn), the IC50 in assay [2] was 3.9 µM.

On to `O=C(Nc1ccccc1)C1=C(O)CC(c2ccco2)CC1=Nc1ccccc1` (stereo not drawn), for which the half-inhibitory concentration (IC50) in assay [2] was > 10 µM.

Take `Cc1[nH]nc(N=CC2=C(O)CC(C)(C)CC2=O)c1-c1ccc(Cl)cc1`: in assay [1], the IC50 was > 10 µM (inactive).

As for `O=C(Nc1nnc(-c2cccs2)o1)c1cccc(C(F)(F)F)c1`, the IC50 in assay [1] was > 10 µM (inactive).

Regarding `Cc1ccc(Cl)c(OCCCCN(C)Cc2ccccc2)c1`, the half-maximal inhibitory concentration (IC50) in assay [2] was > 10 µM.

Take `CC(Sc1ccsc1[N+](=O)[O-])C(=O)NCCc1ccc(Cl)cc1` (stereo not drawn): the IC50 in assay [1] was > 10 µM (inactive).

In the case of `COc1ccc(OCCSc2nnc3sc4ccccc4n23)cc1`, in assay [1], the IC50 is > 10 µM (inactive).

For `CC(C)c1ccc(C(=O)CSc2n[nH]c(-c3ccncc3)n2)cc1`, in assay [1], the IC50 is 17 µM.

With `CCOc1nc(SCCOc2ccccc2)nc(N(C)C)n1`, the IC50 in assay [1] was > 10 µM (inactive).

With `O=S1(=O)C=C(Sc2nc3ccccc3s2)c2ccccc21`, the IC50 in assay [1] is > 10 µM (inactive).

For the compound `CCCCCCCCNc1ncnc2ccccc12`, the IC50 in assay [2] was 14.8 µM.

For the compound `O=C1c2ccccc2C(=O)c2c1oc(C(F)(F)F)c2C(=O)c1ccccc1`, in assay [2], the IC50 was determined as 2.2 µM.

For `CC1CCN(S(=O)(=O)c2ccc(NC(=O)CCN3C(=O)c4ccccc4C3=O)cc2)CC1`, the IC50 in assay [1] was > 10 µM (inactive).

For the origin of these results see PubChem BioAssay AID789 (SRMLSC, 2007).
